Legend:
Recombinant IDO1 = Recombinant IDO1 (Homo sapiens (Human), UniProt P14902); assay: IDO1 enzymatic assay; assay type: biochemical; conditions: 50 nM IDO1, 1.3 mM D-tryptophan, pH 7.5, read-out: Enzyme assay IC50
Experimental: Recombinant IDO1 was overexpressed and purified from E. coli cells with an N-terminal His tag. IDO1 enzymatic assay was carried out using a methodology similar to described in the literature (J. Biol. Chem. (1980), 255, 1339-1345). The reaction mixture contains 50 nM IDO1, 1.3 mM D-tryptophan, 5 mM L-ascorbic acid, […] methylene Blue, 0.4 mg/mL catalase and compound (or DMSO) in a buffer containing 50 mM potassium phosphate pH 7.5 and 0.1% BSA. After incubation at 24° C. for 1.5 hours, absorbance of the reaction mixture was continuously read at 321 nm to monitor the formation of N′-formylkynurenine by a FULOstar OMEGA plate reader (BMG LABTECH) for 1 hour. The enzymatic activity was determined by measuring the slope of the linear absorbance increase as a function of time. The IC50s are calculated based on remaining enzyme activity in the presence of increasing concentrations of compounds.

[1] = biological target: cellular IDO1 in HeLa cells (Homo sapiens (Human), UniProt P14902); assay: HeLa Cell-Based IDO1 Kyn (Kynurenine) Production Assay; conditions: IFN-γ induced IDO1, 48 hours incubation, Kyn absorbance at 480 nm
Chain of cellular IDO1 in HeLa cells (P14902 whole entry): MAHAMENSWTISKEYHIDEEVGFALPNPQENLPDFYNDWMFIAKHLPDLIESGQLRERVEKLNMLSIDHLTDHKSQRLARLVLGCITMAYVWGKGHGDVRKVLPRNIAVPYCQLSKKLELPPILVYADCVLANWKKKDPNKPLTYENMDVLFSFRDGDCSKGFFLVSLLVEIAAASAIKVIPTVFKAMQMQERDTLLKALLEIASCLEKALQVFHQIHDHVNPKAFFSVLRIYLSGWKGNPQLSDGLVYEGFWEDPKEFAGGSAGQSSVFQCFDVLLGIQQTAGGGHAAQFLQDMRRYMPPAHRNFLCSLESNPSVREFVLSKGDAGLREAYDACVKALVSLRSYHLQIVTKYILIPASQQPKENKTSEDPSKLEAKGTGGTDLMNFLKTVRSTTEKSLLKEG
Method in brief: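 Compounds added to HeLa cells together with IFN-γ (100 ng/mL final) and 0.4 mM L-Trp, 48 h at 37 °C. Kynurenine in TCA-deproteinized supernatant measured colorimetrically with 4-(dimethylamino)benzaldehyde at 480 nm; IC50 from four-parameter logistic fit.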

Chain of Recombinant IDO1 (P14902 whole entry, species assumed): as the sequence (P14902 whole entry) above

IC50 (Recombinant IDO1) [nM] | EC50 [1] [nM] | Compound
> 10000 | 107 | Clc1cccc2[nH]c(C[C@H]3CC[C@@H](c4ccccc4)CC3)nc12 [Example A35, 4-chloro-2-(((1s,4s)-4-phenylcyclohexyl)methyl)-1H-benzo[d]imidazole]
> 10000 | 223 | Fc1cc2nc(C[C@H]3CC[C@H](c4ccccc4)CC3)[nH]c2cc1Br [Example A37a, 6-bromo-5-fluoro-2-(((1r,4r)-4-phenylcyclohexyl)methyl)-1H-benzo[d]imidazole]
6900 | 99 | Fc1cc2nc(C[C@H]3CC[C@@H](c4ccccc4)CC3)[nH]c2cc1Br [Example A37b, 6-bromo-5-fluoro-2-(((1s,4s)-4-phenylcyclohexyl)methyl)-1H-benzo[d]imidazole]
> 10000 | 143 | Fc1ccc2nccc(C3CCN(CCc4nc5cc(Cl)ccc5[nH]4)CC3)c2c1 [Example A38, 4-(1-(2-(5-chloro-1H-benzo[d]imidazol-2-yl)ethyl)piperidin-4-yl)-6-fluoroquinoline]
> 10000 | 852 | Clc1ccc2[nH]c(CC3CCN(c4ccnc5ccccc45)CC3)nc2c1 [Example A40, 4-(4-((5-chloro-1H-benzo[d]imidazol-2-yl)methyl)piperidin-1-yl)quinoline]
> 10000 | 481 | Fc1ccc2nccc(N3CCC(Cc4nc5cc(Cl)ccc5[nH]4)CC3)c2c1 [Example A41, 4-(4-((5-chloro-1H-benzo[d]imidazol-2-yl)methyl)piperidin-1-yl)-6-fluoroquinoline]

Reference: patent publication US11472788B2, “Benzoimidazoles as selective inhibitors of indoleamine 2,3-dioxygenases” (BEIGENE, LTD., priority 2017, dated 2022)
